From patent US11512069B2, “TLR7/8 antagonists and uses thereof” (Merck Patent GmbH, priority 2016, dated 2022) come the findings set out here.

pIC50: −log10 of the molar value.

This test concerns the target T1, TLR7 (Homo sapiens, UniProt Q9NYK1).
T1 construct: expressed in transfected cells; host or cells: HEK cells carrying TLR7 and an NF-kB reporter read with Steady-Glo
T1 sequence (Q9NYK1 27-1049): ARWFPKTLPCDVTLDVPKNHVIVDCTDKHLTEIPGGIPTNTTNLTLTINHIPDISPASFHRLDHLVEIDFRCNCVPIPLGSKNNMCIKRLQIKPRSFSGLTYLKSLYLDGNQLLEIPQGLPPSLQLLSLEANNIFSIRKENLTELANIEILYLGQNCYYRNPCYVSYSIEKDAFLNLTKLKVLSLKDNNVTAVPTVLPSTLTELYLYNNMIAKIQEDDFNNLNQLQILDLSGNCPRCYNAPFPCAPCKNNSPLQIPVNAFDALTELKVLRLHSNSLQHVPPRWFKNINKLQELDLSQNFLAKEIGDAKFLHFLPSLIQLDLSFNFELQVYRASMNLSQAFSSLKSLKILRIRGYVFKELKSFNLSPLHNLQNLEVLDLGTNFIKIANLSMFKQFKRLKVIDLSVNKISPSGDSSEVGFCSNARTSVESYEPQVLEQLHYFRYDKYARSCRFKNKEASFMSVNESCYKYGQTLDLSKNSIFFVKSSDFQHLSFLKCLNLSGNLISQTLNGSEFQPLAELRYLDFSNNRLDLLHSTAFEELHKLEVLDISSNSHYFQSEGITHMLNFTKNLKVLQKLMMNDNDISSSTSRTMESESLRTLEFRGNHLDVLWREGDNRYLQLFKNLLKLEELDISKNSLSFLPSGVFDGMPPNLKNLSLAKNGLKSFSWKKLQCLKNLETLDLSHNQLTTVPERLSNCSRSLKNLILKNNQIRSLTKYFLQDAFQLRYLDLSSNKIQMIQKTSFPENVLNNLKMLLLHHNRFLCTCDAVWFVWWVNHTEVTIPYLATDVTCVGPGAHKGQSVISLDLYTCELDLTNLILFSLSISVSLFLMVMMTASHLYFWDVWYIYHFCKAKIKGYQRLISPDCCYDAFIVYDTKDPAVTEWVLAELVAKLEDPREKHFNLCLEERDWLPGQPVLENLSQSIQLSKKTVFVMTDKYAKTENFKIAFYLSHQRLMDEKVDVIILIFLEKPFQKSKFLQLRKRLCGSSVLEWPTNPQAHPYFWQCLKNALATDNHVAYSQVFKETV
The experiment in a line: HEK Cell Assay (TLR7/NFKb HEK reporter cells, Steady-Glo). It counts as cell-based. As to conditions: compound 30 min, then R*48 agonist 5 hours, Steady-Glo readout, read-out: Potency. The method, then:
Example 32: HEK Cell Assay
Into 384 CulturePlates (Corning 3707) was placed 5000 c/w of TLR7/NFKb HEK cells in 30 uL DMEM without Phenil red (gibco #31053) and 10% i.a. FCS and 2 mM L-ZGLutamin. The cells were incubated for 24 h at 37 degrees Celsius, 10% carbon dioxide and 90% relative humidity, 3 uL of controls, standards, and compounds were dispensed to wells, incubated for 30 min then 3 uL of R*48 agonist in 20 mM Hepes was added. After incubation for 5 hours, it was allowed to stand at room temperature for 15 min, 10 uL of Steady-Glo substrate reagent was added and shake assay plate for 5 min at 1500 rpm. The assay plate was allowed to sit for 30 min at room temperature and then read plate on EnVision.

`C[C@@H]1C[C@@H](c2ccc(C#N)c3ncccc23)CN(C(=O)CN2CCN(C)CC2)C1` [Compound 96, 5-{(3S,5R)-5-Methyl-1-[2-(4-methyl-piperazin-1-yl)-acetyl]-piperidin-3-yl}-quinoline-8-carbonitrile]: the pIC50 was 4.70 to 6.00.

`C[C@@H]1C[C@H](c2ccc(C(F)(F)F)c3ncccc23)CN(C(=O)CCN2CCN(C)CC2)C1` [Compound 44, 3-(4-Methyl-piperazin-1-yl)-1-[(3R,5R)-3-methyl-5-(8-trifluoromethyl-quinolin-5-yl)-piperidin-1-yl]-propan-1-one]: the pIC50 is greater than 6.00. In the case of `CC(C)[C@H](O)C(=O)N[C@H]1C[C@@H](C)C[C@H](c2ccc(C#N)c3nccnc23)C1` [Compound 128, (S)—N-((1S,3S,5S)-3-(8-cyanoquinoxalin-5-yl)-5-methylcyclohexyl)-2-hydroxy-3-methylbutanamide] it was 4.70 to 6.00; in that of `C[C@@H]1C[C@H](c2ccc(C#N)c3ncccc23)CN(C(=O)CC2[C@H]3CN(C)C[C@@H]23)C1` (relative stereo) [Compound 79], greater than 6.00. The result for `C[C@@H]1C[C@H](NC(=O)[C@@H](O)C(C)(C)C)C[C@H](c2ccc(C(F)(F)F)c3nccnc23)C1` [Compound 155, (S)-2-hydroxy-3,3-dimethyl-N-((1S,3S,5R)-3-methyl-5-(8-(trifluoromethyl)quinoxalin-5-yl)cyclohexyl)butanamide] reads 4.70 to 6.00; that for `C[C@H]1C[C@@H](N)C[C@@H](c2ccc(C#N)c3nccnc23)C1` [Compound 121, 8-[(1S,3R,5R)-3-amino-5-methylcyclohexyl]quinoxaline-5-carbonitrile], greater than 6.00; that for `CC(C)N1CCC(CC(=O)N2C[C@@H](C)C[C@@H](c3ccc(C#N)c4ncccc34)C2)CC1` [Compound 47, 5-{(3S,5S)-1-[2-(1-Isopropyl-piperidin-4-yl)-acetyl]-5-methyl-piperidin-3-yl}-quinoline-8-carbonitrile], 4.70 to 6.00.

Consider `C[C@H]1C[C@@H](NC(=O)CC(C)(C)C)C[C@H](c2ccc(C#N)c3nccnc23)C1` (racemic) [Compound 130, N-[(1,cis-3,trans-5,cis)-3-(8-cyanoquinoxalin-5-yl)-5-methylcyclohexyl]-3,3-dimethylbutanamide], for which the pIC50 is 4.70 to 6.00. The result for `C[C@@H]1C[C@@H](c2ccc(C(F)(F)F)c3ncccc23)CN(C(=O)Cn2cccn2)C1` (relative stereo) [Compound 15] reads less than 4.70. The result for `C[C@@H]1C[C@H](c2ccc(C#N)c3ncccc23)CN(C(N)=O)C1` [Compound 118, (3R,5R)-3-(8-Cyano-quinolin-5-yl)-5-methyl-piperidine-1-carboxylic acid amide] reads 4.70 to 6.00. On to `C[C@H]1C[C@@H](c2ccc(C(F)(F)F)c3ncccc23)CN(C(=O)CC2CCN(C)CC2)C1` [Compound 43, 2-(1-Methyl-piperidin-4-yl)-1-[(3S,5S)-3-methyl-5-(8-trifluoromethyl-quinolin-5-yl)-piperidin-1-yl]-ethanone], for which the pIC50 is 4.70 to 6.00. Consider `C[C@@H]1C[C@H](N)C[C@H](c2ccc(C#N)c3nccnc23)C1` [Compound 122, 8-((1R,3S,5S)-3-amino-5-methylcyclohexyl)quinoxaline-5-carbonitrile], for which the pIC50 is 4.70 to 6.00. The result for `C[C@H]1C[C@@H](NC(=O)[C@@H](O)C(C)(C)C)C[C@@H](c2ccc(C(F)(F)F)c3nccnc23)C1` [Compound 154, (S)-2-hydroxy-3,3-dimethyl-N-((1R,3R,5S)-3-methyl-5-(8-(trifluoromethyl)quinoxalin-5-yl)cyclohexyl)butanamide] reads greater than 6.00. The result for `Cc1ncc([C@H]2C[C@@H](C)CN(C(=O)CC3CCN(C)CC3)C2)c2cccnc12` [Compound 95, 1-[(3R,5R)-3-Methyl-5-(8-methyl-[1,7]naphthyridin-5-yl)-piperidin-1-yl]-2-(1-methyl-piperidin-4-yl)-ethanone] reads 4.70 to 6.00; that for `C[C@@H]1C[C@H](c2ccc(C#N)c3ncccc23)CN(C(=O)CC2CC2)C1` (relative stereo) [Compound 28, Cis 5-[1-(2-Cyclopropyl-acetyl)-5-methyl-piperidin-3-yl]-quinoline-8-carbonitrile], 4.70 to 6.00.

With `CC(C)N1CCC(CC(=O)N2C[C@H](C)C[C@H](c3ccc(C#N)c4ncccc34)C2)CC1` (racemic) [Compound 19], the pIC50 was greater than 6.00. In the case of `CC1CC(c2ccc(C#N)c3ncccc23)CN(CCC(N)=O)C1` (centres unmarked) [Compound 49, 3-[3-(8-Cyano-quinolin-5-yl)-5-methyl-piperidin-1-yl]-propionamide] it was less than 4.70. In the case of `Cc1ncc([C@@H]2C[C@@H](C)CN(C(=O)CC3CCN(C)CC3)C2)c2cccnc12` [Compound 94, 1-[(3R,5S)-3-Methyl-5-(8-methyl-[1,7]naphthyridin-5-yl)-piperidin-1-yl]-2-(1-methyl-piperidin-4-yl)-ethanone] it was 4.70 to 6.00; in that of `C[C@H]1C[C@@H](NC(=O)CC2CC2(F)F)C[C@@H](c2ccc(C#N)c3nccnc23)C1` (mixture of isomers) [Compound 156, N-[(cis-1,3,5)-3-(8-cyanoquinoxalin-5-yl)-5-methylcyclohexyl]-2-(2,2-difluorocyclopropyl)acetamide], 4.70 to 6.00; in that of `Cc1ccc([C@@H]2C[C@H](C)CN(C(=O)CC3CCN(C)CC3)C2)c2cccnc12` [Compound 82, 1-[(3S,5S)-3-Methyl-5-(8-methyl-quinolin-5-yl)-piperidin-1-yl]-2-(1-methyl-piperidin-4-yl)-ethanone], 4.70 to 6.00. In the case of `C[C@@H]1C[C@H](c2ccc(C#N)c3ncccc23)CN(CC(=O)N2CCC(N(C)C)CC2)C1` (relative stereo) [Compound 70, cis-5-(1-{2-[4-(dimethylamino)piperidin-1-yl]-2-oxoethyl}-5-methylpiperidin-3-yl) quinoline-8-carbonitrile] it was 4.70 to 6.00.

Consider `Cc1ccc([C@H]2C[C@@H](C)CN(C(=O)CC3C4CC3CN(C)C4)C2)c2cccnc12` (stereo partly drawn) [Compound 84, 2-(3-Methyl-3-aza-bicyclo [3.1.1]hept-6-yl)-1-[(3R,5R)-3-methyl-5-(8-methyl-quinolin-5-yl)-piperidin-1-yl]-ethanone], for which the pIC50 was greater than 6.00. With `C[C@@H]1C[C@@H](c2ccc(OC(F)(F)F)c3ncccc23)CN(C(=O)CN2CCN(C)CC2)C1` [Compound 104, 2-(4-Methyl-piperazin-1-yl)-1-[(3R,5S)-3-methyl-5-(8-trifluoromethoxy-quinolin-5-yl)-piperidin-1-yl]-ethanone], the pIC50 was less than 4.70. The result for `C[C@@H]1C[C@H](c2ccc(C#N)c3ncccc23)CN(C(=O)c2cc3n(n2)CCC3)C1` (relative stereo) [Compound 38, cis-5-[1-(5,6-Dihydro-4H-pyrrolo[1,2-b]pyrazole-2-carbonyl)-5-methyl-piperidin-3-yl]-quinoline-8-carbonitrile] reads less than 4.70; that for `C[C@@H]1C[C@@H](c2cccc3ncccc23)CN(C(=O)NC2CCN(C)CC2)C1` [Compound 114, (3R,5S)-3-Methyl-5-quinolin-5-yl-piperidine-1-carboxylic acid (1-methyl-piperidin-4-yl)-amide], 4.70 to 6.00. In the case of `C[C@@H]1C[C@@H](c2ccc(C#N)c3ncccc23)CN(C(=O)C2CN(C)C2)C1` (relative stereo) [Compound 32] it was 4.70 to 6.00; in that of `CC1CC(c2ccc(Cl)c3ncccc23)CN(C(=O)CC2CCN(C)CC2)C1` (centres unmarked) [Compound 22, 1-[3-(8-Chloro-quinolin-5-yl)-5-methyl-piperidin-1-yl]-2-(1-methyl-piperidin-4-yl)-ethanone], greater than 6.00; in that of `COc1ncc([C@@H]2C[C@@H](C)CN(C(=O)CC3CCN(C)CC3)C2)c2cccnc12` [Compound 88, 1-[(3S,5R)-3-(8-Methoxy-[1,7]naphthyridin-5-yl)-5-methyl-piperidin-1-yl]-2-(1-methyl-piperidin-4-yl)-ethanone], 4.70 to 6.00.

Regarding `C[C@@H]1C[C@@H](c2ccc(C(F)(F)F)c3ncccc23)CN(C(=O)CCn2cccn2)C1` (relative stereo) [Compound 13], the pIC50 is less than 4.70.
